Reference: patent publication US11649236B2, “Polycyclic carbamoylpyridone derivative” (Shionogi & Co., Ltd., priority 2018, dated 2023)

How the values were obtained:
HIV = assay: Anti-HIV activity (MT-4 cells, MTT); format: cell-based; conditions: Human immunodeficiency virus 1, MT4, 96 h, cultured 4 days
Description: Serial dilutions of a test sample were prepared in a 96-well microplate (50 μL/well). 2.5×10^5 cells/mL of a MT-4 cell suspension was dispensed at 100 μL/well to the plate containing the test sample. Then, an HIV virus solution was dispensed at 50 μL/well. The plate was mixed with a plate mixer and cultured for 4 days in a CO2 incubator. An MTT (3-(4,5-dimethylthiazol-2-yl)-2,5-diphenyltetrazolium bromide) solution was dispensed at 30 μL/well. The plate was reacted for 1 hour in a CO2 incubator. 150 μL of the supernatant was removed from each well so as not to take up the cells. 150 μL of a cell lysis solution was added to each well and well mixed with a plate mixer until the cells were completely lysed. The absorbance of the mixed plate was measured at two wavelengths of 560 nm and 690 nm with a microplate reader.

[1] = test system: HIV mutant strain 2 (E92Q/E138T/G140S/Q148H); assay: Resistance evaluation test (HeLa-CD4 reporter), mutant strain 2; format: cell-based; conditions: FC=EC50 of mutant strain/EC50 of wild strain, HeLa-CD4 cells
Description: (§1) Serial dilutions of a test sample were prepared in a96-well microplate (50 μL/well). 2.5×10^5 cells/mL of a HeLa-CD4 cell suspension was dispensed at 100 μL/well to the plate containing the test sample. Then, an HIV virus solution (wild strain and mutant strain) was dispensed at 50 μL/well. The plate was mixed with a plate mixer and cultured for 3 days in a CO2 incubator. The culture supernatant in each well was removed by suction. A cell lysis buffer in a reporter assay kit was dispensed at 100 μL/well, and the plate was frozen in a freezer (−80° C.). The plate frozen in a freezer was thawed at room temperature, then mixed with a plate mixer, and centrifuged at 1,200 rpm for 5 minutes. The supernatant of each well was dispensed at 20 μL/well to a 96-well microplate (BLACK). A chemiluminescent reagent in the reporter assay kit was dispensed at 100 μL/well and reacted at room temperature for approximately 1 hour. Then, luminescence intensity was measured using MicroBeta TRILUX. […] FC=EC50 of mutant strain/EC50 of wild strain (Results) FC for the mutant strain 1 (E138K/G140S/Q148H/N155H) and FC for the mutant strain 2 (E92Q/E138T/G140S/Q148H) are shown in the table.

[2] = test system: HIV mutant strain 1 (E138K/G140S/Q148H/N155H); assay: Resistance evaluation test (HeLa-CD4 reporter), mutant strain 1; format: cell-based; conditions: FC=EC50 of mutant strain/EC50 of wild strain, HeLa-CD4 cells
Description: as §1

Metabolic stability test = format: in vitro ADME, human; design: key: % remaining vs amount at 0 min (=100%)
Description: Commercially available pooled human liver microsomes were reacted with the compound of the present invention for a certain time. A residual rate was calculated by the comparison between the reacted sample and an unreacted sample to evaluate the degree at which the compound of the present invention is metabolized in the liver. A reaction was performed (oxidative reaction) at 37° C. for 0 minutes or 30 minutes in the presence of 1 mmol/L NADPH in 0.2 mL of a buffer (50 mmol/L Tris-HCl pH 7.4, 150 mmol/L potassium chloride, 10 mmol/L magnesium chloride) containing 0.5 mg protein/mL of human liver microsomes. After the reaction, 50 μL of the reaction solution was added to 100 μL of a solution of methanol/acetonitrile=1/1 (v/v) and mixed, and the mixture was centrifuged at 3000 rpm for 15 minutes. The compound of the present invention in the centrifugation supernatant was quantified by LC/MS/MS or solid-phase extraction (SPE)/MS. The amount of the compound of the present invention remaining after the reaction was calculated with the amount of the compound at 0 minutes of the reaction defined as 100%.

[3] = compound 0.5 μmol/L, human liver microsomes 0.5 mg protein/mL, NADPH, 37° C., 30 minutes, amount at 0 minutes defined as 100%

Row | Compound | EC50 (HIV) [nM] | FC mutant strain 2 [1] | FC mutant strain 1 [2] | residual rate (Metabolic stability test; [3]) | residual rate (Metabolic stability test; human, 30 min, 0.5 μmol/L, pH 7.4)
1 | CCN1C(=O)c2c(O)c(=O)c(C(=O)NCc3ccc(F)cc3F)cn2N2CCCC[C@@]12C [Compound I-006] | 0.76 | 16 | 24 | 92.5 | –
2 | CCN1C(=O)c2c(O)c(=O)c(C(=O)NCc3c(F)cc(F)cc3F)cn2N2CCCC[C@@H]12 [Compound I-011] | 2.2 | 10 | 13 | 88 | –
3 | CC(C)N1C(=O)c2c(O)c(=O)c(C(=O)NCc3c(F)cc(F)cc3F)cn2N2C[C@@H]3CC[C@@H](O3)[C@@H]12 [II-005] | 0.62 | 7.4 | 3.1 | 80.2 | –
4 | COC[C@@H]1CC[C@H]2N(C(C)C)C(=O)c3c(O)c(=O)c(C(=O)NCc4ccccc4F)cn3N12 [II-009] | 2.6 | 7.7 | 4.6 | 80.8 | –
5 | CC(C)N1C(=O)c2c(O)c(=O)c(C(=O)NCc3ccccc3F)cn2N2C[C@@H]3CC[C@@H](O3)[C@@H]12 [II-013] | 0.4 | 6.4 | 5.6 | 87 | –
6 | CCN1C(=O)c2c(O)c(=O)c(C(=O)NCc3c(F)cc(F)cc3F)cn2N2C[C@@H]3CC[C@@H](C3)[C@@H]12 [II-015] | 0.95 | 7.3 | 5.7 | 74.3 | –
7 | CCN1C(=O)c2c(O)c(=O)c(C(=O)NCc3ccc(F)cc3F)cn2N2C[C@@H]3CCC[C@@H](C3)[C@@H]12 [II-018] | 2.9 | 8.7 | 6.1 | 77.6 | –
8 | CCN1C(=O)c2c(O)c(=O)c(C(=O)NCc3c(F)cc(F)cc3F)cn2N2C[C@@H](C)CC[C@@H]12 [II-020] | 1.5 | 8.9 | 6.4 | 90.7 | –
9 | CC(C)N1C(=O)c2c(O)c(=O)c(C(=O)NCc3ccc(F)cc3F)cn2N2C[C@@H]3CC[C@@H](O3)[C@@H]12 [II-021] | 0.72 | 9 | 6.6 | 89.1 | –
10 | CN1C(=O)c2c(O)c(=O)c(C(=O)NCc3cccc(Cl)c3F)cn2N2CCCC[C@@H]12 [II-022] | 0.74 | 7.7 | 6.8 | 101 | –
11 | CCN1C(=O)c2c(O)c(=O)c(C(=O)NCc3ccc(F)cc3F)cn2N2CC[C@@H](C)C[C@@H]12 [II-023] | 0.46 | 4.2 | 7 | 82.9 | –
12 | C[C@H]1CC[C@H]2N(C)C(=O)c3c(O)c(=O)c(C(=O)NCc4cccc(Cl)c4F)cn3N2C1 [II-024] | 1.4 | 7 | 7.3 | 84.1 | –
13 | CC(C)N1C(=O)c2c(O)c(=O)c(C(=O)NCc3ccc(F)cc3F)cn2N2CCOC[C@@H]12 [II-026] | 0.18 | 14 | 8.1 | 87.5 | –
14 | CCN1C(=O)c2c(O)c(=O)c(C(=O)NCc3ccc(F)cc3F)cn2N2C[C@@H](COC)C[C@@H]12 [II-041] | 0.66 | 28 | 15 | 94.3 | –
15 | C[C@H]1C[C@H]2N(C)C(=O)c3c(O)c(=O)c(C(=O)NCc4cccc(Cl)c4F)cn3N2C1 [II-042] | 3.2 | 7.9 | 15 | 97.4 | –
16 | CCN1C(=O)c2c(O)c(=O)c(C(=O)NCc3c(F)cc(F)cc3F)cn2N2C[C@@H]3CC[C@@H](O3)[C@@H]12 [II-046] | 0.19 | 28 | 17 | 88.4 | –
17 | CC(C)N1C(=O)c2c(O)c(=O)c(C(=O)NCc3c(F)cc(F)cc3F)cn2N2[C@H]3COC[C@H]3C[C@@H]12 [II-048] | 0.55 | 34 | 17 | – | 73.3
18 | CCN1C(=O)c2c(O)c(=O)c(C(=O)NCc3c(F)cc(F)cc3F)cn2N2C[C@@H](C)C[C@@H]12 [II-049] | 0.77 | 17 | 18 | 83.2 | –
19 | CCN1C(=O)c2c(O)c(=O)c(C(=O)NCc3ccc(F)cc3F)cn2N2[C@H](C)CC[C@@]12C [II-131] | 0.49 | – | – | – | –
20 | CCN1C(=O)c2c(O)c(=O)c(C(=O)NCc3ccc(F)cc3F)cn2N2[C@@H]3COC[C@@H]3C[C@@H]12 [II-145] | 0.68 | – | – | – | –
21 | CCN1C(=O)c2c(O)c(=O)c(C(=O)NCc3ccc(F)cc3F)cn2N2[C@H](COC)CCC[C@@H]12 [II-150] | 0.55 | – | – | – | –
22 | CCN1C(=O)c2c(O)c(=O)c(C(=O)NCc3ccc(F)cc3F)cn2N2[C@H](C)c3cc(F)ccc3[C@@H]12 [II-155] | 1.2 | – | – | – | –
23 | CN1C(=O)c2c(O)c(=O)c(C(=O)NCc3c(F)cc(F)cc3F)cn2N2C[C@H]3C[C@H](C3)[C@@H]12 [II-158] | 0.27 | – | – | – | –

The next lines start with results.

Row | EC50 (HIV) [nM] | Compound | FC mutant strain 2 [1] | FC mutant strain 1 [2] | residual rate (Metabolic stability test; [3]) | residual rate (Metabolic stability test; human, 30 min, 0.5 μmol/L, pH 7.4)
24 | 0.13 | C[C@@H]1CCN2[C@@H](C1)N(C)C(=O)c1c(O)c(=O)c(C(=O)NCc3c(F)cc(F)cc3F)cn12 [II-130] | – | – | – | –
25 | 0.51 | CCN1C(=O)c2c(O)c(=O)c(C(=O)NCc3ccc(F)cc3F)cn2N2CC[C@@H](C(F)(F)F)C[C@@H]12 [II-132] | – | – | – | –
26 | 3 | CCN1C(=O)c2c(O)c(=O)c(C(=O)NCc3cccc(Cl)c3)cn2N2CCCC[C@@H]12 [II-134] | – | – | – | –
27 | 18 | CCN1C(=O)c2c(O)c(=O)c(C(=O)NCc3nn(C)cc3Cl)cn2N2CCCC[C@@H]12 [II-135] | – | – | – | –
28 | 33 | CC[C@@H](NC(=O)c1cn2c(c(O)c1=O)C(=O)N(CC)[C@@H]1CCCCN12)c1ccc(F)cc1F [II-137] | – | – | – | –
29 | 2.1 | C[C@@H]1CC[C@H]2N(C)C(=O)c3c(O)c(=O)c(C(=O)NCc4ccc(Cl)cc4F)cn3N12 [II-138] | – | – | – | –
30 | 0.62 | CN1C(=O)c2c(O)c(=O)c(C(=O)NCc3c(F)cc(F)cc3F)cn2N2CC3(CC3)C[C@@H]12 [II-139] | – | – | – | –
31 | 3.6 | CCN1C(=O)c2c(O)c(=O)c(C(=O)NCc3ccc(Cl)cc3)cn2N2CCCC[C@@H]12 [II-140] | – | – | – | –
32 | 0.65 | CCN1C(=O)c2c(O)c(=O)c(C(=O)NCc3ncc(F)cc3F)cn2N2CCCC[C@@H]12 [II-141] | – | – | – | –
33 | 0.74 | CCN1C(=O)c2c(O)c(=O)c(C(=O)NCc3cc(F)cc(F)c3F)cn2N2CCCC[C@@H]12 [II-142] | – | – | – | –
34 | 3.2 | CCN1C(=O)c2c(O)c(=O)c(C(=O)NCc3ccc(F)cc3F)cn2N2CCN(c3ccccc3)C[C@@H]12 [II-143] | – | – | – | –
35 | 1.6 | CCN1C(=O)c2c(O)c(=O)c(C(=O)NCc3ccc(F)cc3F)cn2N2CCN(c3ncccn3)C[C@@H]12 [II-146] | – | – | – | –
36 | 0.66 | O=C(NCc1ccc(F)cc1F)c1cn2c(c(O)c1=O)C(=O)N1CCCC[C@]13CCCCN23 [II-147] | – | – | – | –
37 | 0.5 | CCN1C(=O)c2c(O)c(=O)c(C(=O)NCc3c(F)cccc3Cl)cn2N2CCCC[C@@H]12 [II-148] | – | – | – | –
38 | 1.2 | CCN1C(=O)c2c(O)c(=O)c(C(=O)NCc3ccc(F)cc3F)cn2N2C[C@@]3(CCOC3)C[C@@H]12 [II-149] | – | – | – | –
39 | 1.6 | CN1C(=O)c2c(O)c(=O)c(C(=O)NCc3cccc(Cl)c3F)cn2N2CC[C@H](C(F)(F)F)C[C@@H]12 [II-151] | – | – | – | –
40 | 0.7 | CN1C(=O)c2c(O)c(=O)c(C(=O)NCc3cccc(Cl)c3F)cn2N2C[C@@H]3CCC[C@@H](O3)[C@@H]12 [II-152] | – | – | – | –
41 | 0.67 | CCN1C(=O)c2c(O)c(=O)c(C(=O)NCc3ccc(F)cc3F)cn2N2Cc3ccc(F)cc3[C@@]12C [II-154] | – | – | – | –
42 | 0.56 | CCN1C(=O)c2c(O)c(=O)c(C(=O)NCc3ccc(F)cc3F)cn2N2CCCC[C@@]12CC [II-159] | – | – | – | –
